Source: publication PMC10353187, “Discovery of a new potent oxindole multi-kinase inhibitor among a series of designed 3-alkenyl-oxindoles with ancillary carbonic anhydrase inhibitory activity as antiproliferative agents” (BMC Chemistry, 2023)

What was measured:
EKVX = test: NCI-60 single-dose antiproliferative assay (SRB); assay type: cell-based; conditions: Homo sapiens, 10 μM single dose, Non-small cell lung cancer, read-out: Cell Growth inhibition Percent
Procedure, shortened: (§1)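 Single dose 10 µM (final), 48 h, 37 °C, 5% CO2; RPMI 1640/5% FBS. Endpoint: TCA fixation, 0.4% SRB, absorbance 515 nm. % growth = (Ti–Tz)/(C–Tz)×100, or (Ti–Tz)/Tz×100 when Ti < Tz; reported as GI%.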

HOP-92 = test: NCI-60 single-dose antiproliferative assay (SRB); assay type: cell-based; conditions: Homo sapiens; 10 μM single dose; HOP-92, Non-small cell lung cancer; read-out: Cell Growth inhibition Percent
Procedure, shortened: as §1

MDA-MB-231/ATCC = test: NCI-60 single-dose antiproliferative assay (SRB); assay type: cell-based; conditions: Homo sapiens, 10 μM single dose, Breast cancer, read-out: Cell Growth inhibition Percent
Procedure, shortened: as §1

M14 = test: NCI-60 single-dose antiproliferative assay (SRB); assay type: cell-based; conditions: Homo sapiens; 10 μM single dose; M14, Melanoma; read-out: Cell Growth inhibition Percent
Procedure, shortened: as §1

SNB-75 = test: NCI-60 single-dose antiproliferative assay (SRB); assay type: cell-based; conditions: Homo sapiens; 10 μM single dose; SNB-75, CNS cancer; read-out: Cell Growth inhibition Percent
Procedure, shortened: as §1

HOP-62 = test: NCI-60 single-dose antiproliferative assay (SRB); assay type: cell-based; conditions: Homo sapiens; 10 μM single dose; HOP-62, Non-small cell lung cancer; read-out: Cell Growth inhibition Percent
Procedure, shortened: as §1

KM12 = test: NCI-60 single-dose antiproliferative assay (SRB); assay type: cell-based; conditions: Homo sapiens; 10 μM single dose; KM12, Colon cancer; read-out: Cell Growth inhibition Percent
Procedure, shortened: as §1

PC-3 = test: NCI-60 single-dose antiproliferative assay (SRB); assay type: cell-based; conditions: Homo sapiens; 10 μM single dose; PC-3, Prostate cancer; read-out: Cell Growth inhibition Percent
Procedure, shortened: as §1

SF-268 = test: NCI-60 single-dose antiproliferative assay (SRB); assay type: cell-based; conditions: Homo sapiens; 10 μM single dose; SF-268, CNS cancer; read-out: Cell Growth inhibition Percent
Procedure, shortened: as §1

SR = test: NCI-60 single-dose antiproliferative assay (SRB); assay type: cell-based; conditions: Homo sapiens, 10 μM single dose, Leukemia, read-out: Cell Growth inhibition Percent
Procedure, shortened: as §1

NCI-H226 = test: NCI-60 single-dose antiproliferative assay (SRB); assay type: cell-based; conditions: Homo sapiens; 10 μM single dose; NCI-H226, Non-small cell lung cancer; read-out: Cell Growth inhibition Percent
Procedure, shortened: as §1

SK-MEL-5 = test: NCI-60 single-dose antiproliferative assay (SRB); assay type: cell-based; conditions: Homo sapiens; 10 μM single dose; SK-MEL-5, Melanoma; read-out: Cell Growth inhibition Percent
Procedure, shortened: as §1

NCI-H23 = test: NCI-60 single-dose antiproliferative assay (SRB); assay type: cell-based; conditions: Homo sapiens; 10 μM single dose; NCI-H23, Non-small cell lung cancer; read-out: Cell Growth inhibition Percent
Procedure, shortened: as §1

MCF7 = test: NCI-60 single-dose antiproliferative assay (SRB); assay type: cell-based; conditions: Homo sapiens; 10 μM single dose; MCF7, Breast cancer; read-out: Cell Growth inhibition Percent
Procedure, shortened: as §1

LOX IMVI = test: NCI-60 single-dose antiproliferative assay (SRB); assay type: cell-based; conditions: Homo sapiens, 10 μM single dose, Melanoma, read-out: Cell Growth inhibition Percent
Procedure, shortened: as §1

CAKI-1 = test: NCI-60 single-dose antiproliferative assay (SRB); assay type: cell-based; conditions: Homo sapiens; 10 μM single dose; CAKI-1, Renal cancer; read-out: Cell Growth inhibition Percent
Procedure, shortened: as §1

ACHN = test: NCI-60 single-dose antiproliferative assay (SRB); assay type: cell-based; conditions: Homo sapiens, 10 μM single dose, Renal cancer, read-out: Cell Growth inhibition Percent
Procedure, shortened: as §1

OVCAR-4 = test: NCI-60 single-dose antiproliferative assay (SRB); assay type: cell-based; conditions: Homo sapiens; 10 μM single dose; OVCAR-4, Ovarian Cancer; read-out: Cell Growth inhibition Percent
Procedure, shortened: as §1

O=C1Nc2ccccc2C1=CNc1ccc(C(=O)Nc2ccc(S(=O)(=O)Nc3ncccn3)cc2)cc1 [Compound 9b, 4-{[(2-Oxoindolin-3-ylidene)methyl]amino}-N-{4-[N-(pyrimidin-2-yl)sulfamoyl]phenyl}benzamide]
melting point: > 300 °C | inhibition at 10 µM (EKVX): 38.5% | inhibition at 10 µM (HOP-92): 4.65% | inhibition at 10 µM (MDA-MB-231/ATCC): 3.83% | inhibition at 10 µM (M14): 1.44% | inhibition at 10 µM (SNB-75): 31.3% | inhibition at 10 µM (HOP-62): 27.7% | inhibition at 10 µM (KM12): 43.9% | inhibition at 10 µM (PC-3): 7.1% | inhibition at 10 µM (SF-268): 3.48% | inhibition at 10 µM (SR): 9.02% | inhibition at 10 µM (NCI-H226): 12.2% | inhibition at 10 µM (SK-MEL-5): 6.95% | inhibition at 10 µM (NCI-H23): 9.28% | inhibition at 10 µM (MCF7): 4.97% | inhibition at 10 µM (LOX IMVI): 7.22% | inhibition at 10 µM (CAKI-1): 27.6% | inhibition at 10 µM (ACHN): 10.5% | inhibition at 10 µM (OVCAR-4): 7.67%
